What all share (assay): growth of human tumour cells (NCI), 48 h
The subject of experiment [1] is HCT-116 colon.
In experiment [2] the test system is SK-MEL-28 melanoma.
In experiment [3] the test system is NCI-H460 lung.
Experiment [4] relates to NCI-H226 lung.
Experiment [5] concerns SF-295 CNS.
Experiment [6] concerns MDA-MB-435.
In experiment [7] the test system is IGROV1 ovarian.
The subject of experiment [8] is SW-620 colon.

Our source for the GI50 and TGI values is PubChem BioAssay (NCI).

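Grown in 96-well plates, cells were treated for 48 hours with each compound at five concentrations. Insufficient inhibition: endpoint recorded as highest concentration tested. Here, GI50 denotes the concentration required for 50% inhibition of growth. The concentration for full growth arrest is given as TGI.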 Where only a bound is given, the exact number is not on record here.

Regarding `O=C(CCN1CCCC1)Nc1ccc2c(NCCc3ccccc3)c3ccccc3nc2c1`, the GI50 in experiment [1] was 354 nM; in experiment [2], 599 nM; in experiment [3], 296 nM; in experiment [4] it was 374 nM; in experiment [5], 381 nM; in experiment [6], 416 nM. Also, the GI50 in experiment [7] is 366 nM; in experiment [8], 300 nM. Further, the TGI in experiment [1] amounted to 1380 nM; in experiment [2], 1.87 µM; in experiment [3], 1.05 µM; in experiment [4], 1.95 µM; in experiment [5], 1530 nM; in experiment [6] it was 1.52 µM. Moreover, the TGI in experiment [7] amounted to 1.63 µM; in experiment [8] it was 1.36 µM.

For `Cc1cn([C@H]2C[C@H](O)[C@@H](CO)O2)c(=O)nc1N`, the TGI is > 100000 nM in experiment [1]; > 100 µM in experiment [2]; > 100 µM in experiment [3]; > 100 µM in experiment [4]; > 100000 nM in experiment [5]; > 100 µM in experiment [6]. Further, the TGI in experiment [7] and in experiment [8] was > 100 µM in each case.

As for `COc1cc(C(=O)O/N=C(\N)Cc2cccc3ccccc23)cc(OC)c1OC`, the GI50 is 3130 nM in experiment [1]; 12400 nM in experiment [2]; 2780 nM in experiment [3]; 16900 nM in experiment [4]; 3490 nM in experiment [5]; 2400 nM in experiment [6]. Further, the GI50 was 3610 nM in experiment [7] and 11700 nM in experiment [8]. Moreover, the TGI in experiment [1] worked out at 13000 nM; in experiment [2], 26.2 µM; in experiment [3], 7.81 µM; in experiment [4], 42.5 µM; in experiment [5] it was 13700 nM; in experiment [6] it was 6.42 µM. Also, the TGI in experiment [7] is 12.1 µM; in experiment [8], 27.8 µM.

As for `CCCCCCCCCCC[C@@H](C[C@H]1OC(=O)[C@H]1CCCCCC)OC(=O)[C@@H](CC(C)C)NC=O`, the GI50 in experiment [1] was 3140 nM; in experiment [2] it was 19800 nM; in experiment [3], 3630 nM; in experiment [4], 2100 nM; in experiment [5] it was 2080 nM; in experiment [6], 5770 nM. For the same molecule, the GI50 was 7620 nM in experiment [7] and 4920 nM in experiment [8]. Moreover, the TGI in experiment [1] is 19300 nM; in experiment [2] it was > 100 µM; in experiment [3], 21.1 µM; in experiment [4], 7.91 µM; in experiment [5], 10600 nM; in experiment [6], 60.3 µM. Moreover, the values for the TGI in experiment [7] and in experiment [8] were 55.7 µM and 94.1 µM, respectively.

As for `CCOC(=O)c1ccccc1SC(C[N+](=O)[O-])c1ccccc1` (configuration not stated), the GI50 in experiment [1] is 1460 nM; in experiment [2], 1910 nM; in experiment [3] it was 18600 nM; in experiment [4] it was 16100 nM; in experiment [5] it was 18300 nM; in experiment [6] it was 2910 nM. In addition, the GI50 is 3880 nM in experiment [7] and 2040 nM in experiment [8]. The TGI in experiment [1] came to 2980 nM; in experiment [2], 3.74 µM; in experiment [3], 39.5 µM; in experiment [4], 44.5 µM; in experiment [5], 34600 nM; in experiment [6] it was 11.4 µM. The TGI in experiment [7] was 15 µM; in experiment [8] it was 4.7 µM.

Consider `O=C(Nc1ccc(Nc2ccncc2)cc1)c1ccc(Nc2ccnc3ccc([N+](=O)[O-])cc23)cc1[N+](=O)[O-]`, for which the GI50 was 23700 nM in experiment [1]; 5260 nM in experiment [2]; 9960 nM in experiment [3]; 37500 nM in experiment [4]; 6690 nM in experiment [5]; 23300 nM in experiment [6]. Moreover, the GI50 in experiment [7] was 14100 nM; in experiment [8], 26800 nM. For the same molecule, the TGI was > 100000 nM in experiment [1]; > 46.1 µM in experiment [2]; > 100 µM in experiment [3]; > 93.9 µM in experiment [4]; 98300 nM in experiment [5]; > 100 µM in experiment [6]. For the same molecule, the values for the TGI in experiment [7] and in experiment [8] were > 83.7 µM and > 55.5 µM, respectively.

For the molecule `Cc1ccc2nc3c(n2c1)C(=O)C(=O)c1ccccc1-3`, the GI50 in experiment [1] is 188 nM; in experiment [2] it was 189 nM; in experiment [3] it was 173 nM; in experiment [4], 371 nM; in experiment [5], 287 nM; in experiment [6] it was 66.1 nM. The GI50 was 319 nM in experiment [7] and 198 nM in experiment [8]. Moreover, the TGI in experiment [1] is 1090 nM; in experiment [2], 0.343 µM; in experiment [3], 0.718 µM; in experiment [4] it was 1.29 µM; in experiment [5], 937 nM; in experiment [6], 0.137 µM. Moreover, the TGI in experiment [8] worked out at 0.411 µM.

Regarding `CC[C@H](C)[C@H](NC(=O)NC(C)(C)C)C(=O)N(C)[C@H](C[C@@H](OC(C)=O)c1nc(C(=O)N[C@@H](Cc2ccccc2)C[C@H](C)C(=O)OC)cs1)C(C)C`, the GI50 in experiment [1] was 417 nM; in experiment [2] it was 2970 nM; in experiment [3], 699 nM; in experiment [4], 1950 nM; in experiment [5], 485 nM; in experiment [6], 88.4 nM. Moreover, the GI50 is 556 nM in experiment [7] and 646 nM in experiment [8]. Also, the TGI in experiment [1] was > 25000 nM; in experiment [2], > 25 µM; in experiment [3], > 13.7 µM; in experiment [4] it was > 25 µM; in experiment [5] it was 1830 nM; in experiment [6] it was 0.486 µM. For the same molecule, the TGI in experiment [7] and in experiment [8] was > 25 µM each time.

For `COc1cnc2c(c1)C(=O)c1c-2n(CCCNCCN2CCOCC2)c(=O)c2cc([N+](=O)[O-])ccc12`, the GI50 in experiment [2] was 1130 nM; in experiment [3] it was 41.1 nM; in experiment [5] it was 73.5 nM; in experiment [6] it was 420 nM; in experiment [7], 422 nM; in experiment [8] it was 128 nM. For the same molecule, the TGI in experiment [2] was determined as 14.3 µM; in experiment [3] it was 1.03 µM; in experiment [5], 964 nM; in experiment [6], 15.4 µM; in experiment [7], 6.76 µM; in experiment [8] it was 8.68 µM.

As for `O=C1/C(=C/c2ccc(Cl)cc2)CN(C(=O)CCN2CCC(=NO)CC2)C/C1=C\c1ccc(Cl)cc1`, the GI50 in experiment [1] was 245 nM; in experiment [2], 1570 nM; in experiment [3] it was 888 nM; in experiment [4], 1350 nM; in experiment [5], 1460 nM; in experiment [6], 631 nM. Also, the GI50 is 807 nM in experiment [7] and 179 nM in experiment [8]. Moreover, the TGI amounted to 654 nM in experiment [1]; 2.96 µM in experiment [2]; 2.73 µM in experiment [3]; 2.75 µM in experiment [4]; 2860 nM in experiment [5]; 1.76 µM in experiment [6]. Further, the TGI in experiment [7] is 2.05 µM; in experiment [8] it was 0.467 µM.
